In patent US11066396B2 (priority 2016, dated 2021):

Assays:
HDAC5 = HDAC5 (Homo sapiens (Human), UniProt Q9UQL6); conditions: read-out: HDAC5 IC50
HDAC1 = HDAC1 (Homo sapiens (Human), UniProt Q13547); conditions: read-out: HDAC1 IC50
Sequence of HDAC1 (Q13547 whole entry): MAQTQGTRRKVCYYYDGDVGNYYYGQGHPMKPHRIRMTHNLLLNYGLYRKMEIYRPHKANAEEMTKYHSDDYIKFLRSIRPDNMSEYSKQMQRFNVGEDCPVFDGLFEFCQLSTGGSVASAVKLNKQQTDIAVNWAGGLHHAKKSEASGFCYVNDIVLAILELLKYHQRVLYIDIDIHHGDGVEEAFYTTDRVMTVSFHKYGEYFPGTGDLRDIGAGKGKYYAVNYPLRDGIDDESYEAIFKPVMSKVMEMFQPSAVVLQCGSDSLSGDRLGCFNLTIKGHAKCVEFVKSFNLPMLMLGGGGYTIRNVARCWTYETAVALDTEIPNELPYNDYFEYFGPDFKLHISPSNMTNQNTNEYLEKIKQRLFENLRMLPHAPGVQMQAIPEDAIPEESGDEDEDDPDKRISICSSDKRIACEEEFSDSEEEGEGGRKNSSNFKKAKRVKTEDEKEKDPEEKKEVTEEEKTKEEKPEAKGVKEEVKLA

Sequence of HDAC5 (Q9UQL6 656-1122): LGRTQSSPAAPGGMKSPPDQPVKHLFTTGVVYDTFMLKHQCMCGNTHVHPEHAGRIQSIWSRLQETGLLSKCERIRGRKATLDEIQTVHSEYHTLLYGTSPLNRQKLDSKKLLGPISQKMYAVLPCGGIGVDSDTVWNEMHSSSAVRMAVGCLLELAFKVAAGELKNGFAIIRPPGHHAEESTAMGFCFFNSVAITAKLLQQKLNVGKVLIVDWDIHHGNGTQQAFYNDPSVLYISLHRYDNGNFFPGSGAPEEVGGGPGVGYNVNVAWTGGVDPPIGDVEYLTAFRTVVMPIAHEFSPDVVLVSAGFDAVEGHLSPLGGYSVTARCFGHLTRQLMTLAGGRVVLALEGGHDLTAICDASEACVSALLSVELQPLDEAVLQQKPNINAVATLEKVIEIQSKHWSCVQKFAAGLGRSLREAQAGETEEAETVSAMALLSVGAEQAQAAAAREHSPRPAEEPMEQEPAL

SMILES	IC50 (HDAC5) [nM]	IC50 (HDAC1) [nM]
O=C(NC(Cc1ccc(-c2noc(C(F)(F)F)n2)cn1)c1cccc(C(F)(F)F)c1)c1ccccc1 (racemic) [Example 486, N-(2-{5-[5-(trifluoromethyl)-1,2,4-oxadiazol-3-yl]pyridin-2-yl}-1-[3-(trifluoromethyl)phenyl]ethyl)benzamide]	670	690
O=C(NC(Cc1ccc(-c2noc(C(F)(F)F)n2)cn1)c1cccc(C(F)(F)F)c1)c1ccccn1 (racemic) [Example 488, N-(2-{5-[5-(trifluoromethyl)-1,2,4-oxadiazol-3-yl]pyridin-2-yl}-1-[3-(trifluoromethyl)phenyl]ethyl)pyridine-2-carboxamide]	670	880
O=S1(=O)CCC(S(=O)(=O)N(Cc2ccc(-c3noc(C(F)(F)F)n3)cc2)c2cccc(C(F)(F)F)c2)C1 (racemic) [Example 492, 1,1-dioxo-N-({4-[5-(trifluoromethyl)-1,2,4-oxadiazol-3-yl]phenyl}methyl)-N-[3-(trifluoromethyl)phenyl]-llambda~6~-thiolane-3-sulfonamide]	390	1200
O=C(N1CCOCC1)N(Cc1ncc(-c2noc(C(F)(F)F)n2)cn1)c1cccc(C(F)(F)F)c1 [Example 50, N-((5-(5-(trifluoromethyl)-1,2,4-oxadiazol-3-yl)pyrimidin-2-yl)methyl)-N-(3-(trifluoromethyl)phenyl)morpholine-4-carboxamide]	820	240
Fc1cc(-c2noc(C(F)(F)F)n2)ccc1COc1ccccc1 [Example 168, 3-(3-Fluoro-4-(phenoxymethyl)phenyl)-5-(trifluoromethyl)-1,2,4-oxadiazole]	1100	15000
CCNC(=O)NC(Cc1ccc(-c2noc(C(F)(F)F)n2)cn1)c1cccc(C(F)(F)F)c1 (centres unmarked) [Example 179, 1-Ethyl-3-(2-(5-(5-(trifluoromethyl)-1,2,4-oxadiazol-3-yl)pyridin-2-yl)-1-(3-(trifluoromethyl)phenyl)ethyl)urea]	390	340
COC(=O)NC(Cc1ccc(-c2noc(C(F)(F)F)n2)cn1)c1cccc(C(F)(F)F)c1 (centres unmarked) [Example 180]	650	650
Fc1ccccc1OCc1cc(-c2noc(C(F)(F)F)n2)ccn1 [Example 250, 2-[(2-fluorophenoxy)methyl]-4-[5-(trifluoromethyl)-1,2,4-oxadiazol-3-yl]pyridine]	910	3100
Fc1cc(COc2cccnn2)ccc1-c1noc(C(F)(F)F)n1 [Example 257, 3-({3-fluoro-4-[5-(trifluoromethyl)-1,2,4-oxadiazol-3-yl]phenyl}methoxy)pyridazine]	200	6400
COc1cncc(OCc2ccc(-c3noc(C(F)(F)F)n3)c(F)c2)c1 [Example 258, 3-({3-fluoro-4-[5-(trifluoromethyl)-1,2,4-oxadiazol-3-yl]phenyl}methoxy)-5-methoxypyridine]	150	1200
Fc1cc(COc2cnc3[nH]ccc3c2)ccc1-c1noc(C(F)(F)F)n1 [Example 259, 5-({3-fluoro-4-[5-(trifluoromethyl)-1,2,4-oxadiazol-3-yl]phenyl}methoxy)-1H-pyrrolo[2,3-b]pyridine]	84	4200
Fc1ccc(OCc2ccc(-c3noc(C(F)(F)F)n3)c(F)c2)cn1 [Example 260, 2-fluoro-5-({3-fluoro-4-[5-(trifluoromethyl)-1,2,4-oxadiazol-3-yl]phenyl}methoxy)pyridine]	120	12000
Fc1ccc2ccc(OCc3ccc(-c4noc(C(F)(F)F)n4)c(F)c3)nc2n1 [Example 261, 2-fluoro-7-({3-fluoro-4-[5-(trifluoromethyl)-1,2,4-oxadiazol-3-yl]phenyl}methoxy)-1,8-naphthyridine]	24	850
Fc1cc(COc2nnnc3ccccc23)ccc1-c1noc(C(F)(F)F)n1 [Example 262, 4-({3-fluoro-4-[5-(trifluoromethyl)-1,2,4-oxadiazol-3-yl]phenyl}methoxy)-1,2,3-benzotriazine]	120	2900
Cc1ccc(OCc2ccc(-c3noc(C(F)(F)F)n3)c(F)c2)nn1 [Example 263, 3-({3-fluoro-4-[5-(trifluoromethyl)-1,2,4-oxadiazol-3-yl]phenyl}methoxy)-6-methylpyridazine]	240	5300
NC(=O)c1cccc(OCc2ccc(-c3noc(C(F)(F)F)n3)c(F)c2)c1 [Example 264, 3-({3-fluoro-4-[5-(trifluoromethyl)-1,2,4-oxadiazol-3-yl]phenyl}methoxy)benzamide]	90	2200
Fc1cc(COc2cccc3c2CNCC3)ccc1-c1noc(C(F)(F)F)n1 [Example 265, 8-({3-fluoro-4-[5-(trifluoromethyl)-1,2,4-oxadiazol-3-yl]phenyl}methoxy)-1,2,3,4-tetrahydroisoquinoline]	280	5600

SMILES	IC50 (HDAC5) [nM]	IC50 (HDAC1) [nM]
Cc1ccnnc1OCc1ccc(-c2noc(C(F)(F)F)n2)c(F)c1 [Example 266, 3-({3-fluoro-4-[5-(trifluoromethyl)-1,2,4-oxadiazol-3-yl]phenyl}methoxy)-4-methylpyridazine]	250	6600
NCc1cccc(OCc2ccc(-c3noc(C(F)(F)F)n3)c(F)c2)c1 [Example 267, 1-[3-({3-fluoro-4-[5-(trifluoromethyl)-1,2,4-oxadiazol-3-yl]phenyl}methoxy)phenyl]methanamine]	200	1100
Fc1cc(COc2nccc3nccn23)ccc1-c1noc(C(F)(F)F)n1 [Example 268, 5-({3-fluoro-4-[5-(trifluoromethyl)-1,2,4-oxadiazol-3-yl]phenyl}methoxy)imidazo[1,2-c]pyrimidine]	120	2900
Cc1cncc(OCc2ccc(-c3noc(C(F)(F)F)n3)c(F)c2)c1 [Example 269, 3-({3-fluoro-4-[5-(trifluoromethyl)-1,2,4-oxadiazol-3-yl]phenyl}methoxy)-5-methylpyridine]	500	7100
NCc1ccccc1OCc1ccc(-c2noc(C(F)(F)F)n2)c(F)c1 [Example 270, 1-[2-({3-fluoro-4-[5-(trifluoromethyl)-1,2,4-oxadiazol-3-yl]phenyl}methoxy)phenyl]methanamine]	160	2300
Fc1cc(COc2cccc3[nH]ncc23)ccc1-c1noc(C(F)(F)F)n1 [Example 271, 4-({3-fluoro-4-[5-(trifluoromethyl)-1,2,4-oxadiazol-3-yl]phenyl}methoxy)-1H-indazole]	85	3700
Fc1cc(COc2nc3cccnc3n2C2CC2)ccc1-c1noc(C(F)(F)F)n1 [Example 272, 3-cyclopropyl-2-({3-fluoro-4-[5-(trifluoromethyl)-1,2,4-oxadiazol-3-yl]phenyl}methoxy)-3H-imidazo[4,5-b]pyridine]	31	630
Cn1c(OCc2ccc(-c3noc(C(F)(F)F)n3)c(F)c2)nc2ncccc21 [Example 273, 2-({3-fluoro-4-[5-(trifluoromethyl)-1,2,4-oxadiazol-3-yl]phenyl}methoxy)-1-methyl-1H-imidazo[4,5-b]pyridine]	28	720
Cc1ncc(OCc2ccc(-c3noc(C(F)(F)F)n3)c(F)c2)cn1 [Example 274, 5-({3-fluoro-4-[5-(trifluoromethyl)-1,2,4-oxadiazol-3-yl]phenyl}methoxy)-2-methylpyrimidine]	160	4000
COc1ccc2cc(OCc3ccc(-c4noc(C(F)(F)F)n4)c(F)c3)nnc2c1 [Example 275, 3-({3-fluoro-4-[5-(trifluoromethyl)-1,2,4-oxadiazol-3-yl]phenyl}methoxy)-7-methoxycinnoline]	87	860
Fc1cc(COc2cnc(C3CC3)nc2)ccc1-c1noc(C(F)(F)F)n1 [Example 276, 2-cyclopropyl-5-({3-fluoro-4-[5-(trifluoromethyl)-1,2,4-oxadiazol-3-yl]phenyl}methoxy)pyrimidine]	120	1500
Fc1cc(COc2nc3ncccc3n2CC(F)(F)F)ccc1-c1noc(C(F)(F)F)n1 [Example 277, 2-({3-fluoro-4-[5-(trifluoromethyl)-1,2,4-oxadiazol-3-yl]phenyl}methoxy)-1-(2,2,2-trifluoroethyl)-1H-imidazo[4,5-b]pyridine]	130	2000
Fc1cc(COc2nc3cccnc3n2CC(F)(F)F)ccc1-c1noc(C(F)(F)F)n1 [Example 278, 2-({3-fluoro-4-[5-(trifluoromethyl)-1,2,4-oxadiazol-3-yl]phenyl}methoxy)-3-(2,2,2-trifluoroethyl)-3H-imidazo[4,5-b]pyridine]	86	780
COc1ncc(OCc2ccc(-c3noc(C(F)(F)F)n3)c(F)c2)cn1 [Example 279, 5-({3-fluoro-4-[5-(trifluoromethyl)-1,2,4-oxadiazol-3-yl]phenyl}methoxy)-2-methoxypyrimidine]	69	750
Fc1cc(COc2nnc(C3CC3)o2)ccc1-c1noc(C(F)(F)F)n1 [Example 280, 3-(4-{[(5-cyclopropyl-1,3,4-oxadiazol-2-yl)oxy]methyl}-2-fluorophenyl)-5-(trifluoromethyl)-1,2,4-oxadiazole]	190	2200
Cc1csc(OCc2ccc(-c3noc(C(F)(F)F)n3)c(F)c2)n1 [Example 281, 3-(2-fluoro-4-{[(4-methyl-1,3-thiazol-2-yl)oxy]methyl}phenyl)-5-(trifluoromethyl)-1,2,4-oxadiazole]	30	2700
Fc1cc(COc2ccc3cccc(F)c3n2)ccc1-c1noc(C(F)(F)F)n1 [Example 282, 8-fluoro-2-({3-fluoro-4-[5-(trifluoromethyl)-1,2,4-oxadiazol-3-yl]phenyl}methoxy)quinoline]	7	720
